From the NIST ThermoML archive (doi:10.1016/j.jct.2004.06.009)
Numbers after ± are expanded uncertainties.

Legend:
[1] = Molar enthalpy of transition or fusion

Triple point temperature (Crystal 1) [K] | Triple point temperature (Crystal 2) [K] | Molar enthalpy of transition or fusion ([1]; Crystal 1) [kcal/mol] | Molar enthalpy of transition or fusion ([1]; Crystal 2) [kcal/mol] | Triple point temperature (Crystal) [K] | Molar enthalpy of transition or fusion ([1]; Crystal) [kcal/mol] | Structure (SMILES)
247.79 ± 0.16 | 223.38 ± 0.16 | 0.368 ± 0.0098 | 2.225 ± 0.00717 | – | – | CC12CC3CC(C1)CC(C)(C3)C2 [1,3-dimethyladamantane]
– | – | – | – | 225.56 ± 0.16 | 2.696 ± 0.012 | CCC12CC3CC(CC(C3)C1)C2 [1-ethyladamantane]
